Source: ChEMBL document CHEMBL1201862, “PubChem BioAssay data set” (2004)
Activity calls are given as the source filed them.

Tests used:
[1] = Luminescence Cell-Based Dose Confirmation HTS to Identify Activators of 5'UTR Stem-Loop Driven Alpha-Synuclein mRNA Translation in H4 Neuroglioblastoma Cells. [Related pubchem assays: 1829 (Project Summary), 1814 (Primary HTS)]; assay type: functional
[2] = target: Transthyretin (Homo sapiens, UniProt P02766); experiment: Luminescence-based cell-based high throughput dose response assay to identify activators of Transthyretin (TTR) transcription.; assay type: functional
[3] = system: H4; experiment: Luminescence Cell-Based Dose Response HTS to Identify Activators of 5'UTR Stem-Loop Driven Prion Protein mRNA Translation in H4 Neuroglioblastoma Cells. [Related pubchem assays: 1829 (Project Summary), 1814 (Primary HTS)]; assay type: functional; details: Homo sapiens
[4] = Luminescence Cell-Based Dose Response HTS to Identify Activators of Luciferase Translation or Activity in H4 […] Cells. [Related pubchem assays: 1829 (Project Summary), 1814 (Primary HTS)]; assay type: functional
[5] = target: T1, Protein skinhead-1 (Caenorhabditis elegans, UniProt P34707); assay type: functional
T1 sequence (P34707 whole entry): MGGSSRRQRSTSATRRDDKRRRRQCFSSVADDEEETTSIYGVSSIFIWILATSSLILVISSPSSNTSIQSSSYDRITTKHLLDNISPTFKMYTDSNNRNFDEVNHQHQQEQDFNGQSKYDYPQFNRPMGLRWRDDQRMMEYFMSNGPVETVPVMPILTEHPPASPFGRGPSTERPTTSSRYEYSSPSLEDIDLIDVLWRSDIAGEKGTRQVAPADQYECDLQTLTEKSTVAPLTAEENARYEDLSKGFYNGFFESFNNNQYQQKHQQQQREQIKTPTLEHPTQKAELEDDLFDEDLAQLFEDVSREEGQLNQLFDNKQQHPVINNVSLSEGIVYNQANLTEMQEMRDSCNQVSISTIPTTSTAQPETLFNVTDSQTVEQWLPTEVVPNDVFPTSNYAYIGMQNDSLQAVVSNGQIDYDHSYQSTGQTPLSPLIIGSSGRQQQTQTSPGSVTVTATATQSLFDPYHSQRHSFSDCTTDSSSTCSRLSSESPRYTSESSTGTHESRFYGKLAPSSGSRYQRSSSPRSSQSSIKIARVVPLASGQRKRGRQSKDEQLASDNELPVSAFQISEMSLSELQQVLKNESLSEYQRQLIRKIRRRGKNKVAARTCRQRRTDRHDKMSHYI

[6] = target: T2, Oxysterols receptor LXR-beta (Homo sapiens, UniProt P55055); assay type: functional, cell-based;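 further: Cell-based luminescence dose-response assay of agonist activity at LXR, run as a confirmatory counterscreen to a daf-12 agonist screen; HEK293 cells with Gal4-LXR fusion and GAL4-driven luciferase reporter; agonist potency from rising luciferase signal of a Gal4-LXR reporter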
T2 sequence (P55055 whole entry): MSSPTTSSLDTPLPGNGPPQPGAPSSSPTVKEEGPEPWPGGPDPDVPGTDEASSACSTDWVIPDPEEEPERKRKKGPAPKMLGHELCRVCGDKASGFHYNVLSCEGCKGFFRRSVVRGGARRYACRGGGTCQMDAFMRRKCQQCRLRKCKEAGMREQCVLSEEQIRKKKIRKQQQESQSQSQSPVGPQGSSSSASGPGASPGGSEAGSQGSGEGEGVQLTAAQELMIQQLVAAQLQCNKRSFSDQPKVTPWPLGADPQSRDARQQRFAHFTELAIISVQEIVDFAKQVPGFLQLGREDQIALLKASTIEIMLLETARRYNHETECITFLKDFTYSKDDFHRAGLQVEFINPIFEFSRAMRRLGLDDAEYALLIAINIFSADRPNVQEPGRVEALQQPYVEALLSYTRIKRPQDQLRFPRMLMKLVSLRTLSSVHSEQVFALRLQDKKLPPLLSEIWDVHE

[7] = cells
[8] = target: Kallikrein-7 (Homo sapiens, UniProt P49862); experiment: Fluorescence Intensity-based biochemical primary high throughput dose response assay to identify activators of kallikrein-7 (K7) zymogen.
Sequence of Kallikrein-7 (P49862 whole entry): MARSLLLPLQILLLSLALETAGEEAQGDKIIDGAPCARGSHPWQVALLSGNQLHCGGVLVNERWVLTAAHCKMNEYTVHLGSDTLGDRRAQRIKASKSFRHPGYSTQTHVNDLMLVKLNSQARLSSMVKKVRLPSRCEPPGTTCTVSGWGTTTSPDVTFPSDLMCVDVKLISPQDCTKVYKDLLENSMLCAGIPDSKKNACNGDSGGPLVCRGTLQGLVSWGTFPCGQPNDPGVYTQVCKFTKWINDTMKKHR

[9] = cytotoxicity in HeLa cells, dose response, cytotoxicity control, cell-based, plate reader, dry powder (AID 651946); assay type: functional
[10] = inhibitors of non-replicating M. tuberculosis, dose response, luciferase, dry powder (AID 651620); assay type: functional; details: Mycobacterium tuberculosis
[11] = cytotoxicity in HepG2 cells, dose response, cytotoxicity control, cell-based, plate reader, dry powder (AID 651947); assay type: functional
[12] = inhibitors of non-replicating M. tuberculosis, dose response, luciferase, dry powder (AID 651619); assay type: functional; details: Mycobacterium tuberculosis
[13] = HEK293T cell cytotoxicity, dose response, cytotoxicity control, CellTiter-Glo luminescence, dry powder, set 20 (AID 1117293); assay type: functional, cell-based; details: HEK293
[14] = P. falciparum Dd2 growth inhibitors, dose response, SYBR Green, dry powder samples, set 9 (AID 1159568); assay type: functional, cell-based
[15] = inhibitors of orthopox intermediate gene expression, dose response, cell-based, single fluorophore reporter, dry powder (AID 1117271); assay type: functional
[16] = A549 cell cytotoxicity, dose response, CellTiter-Glo luminescence, dry powder, set 17 (AID 1117284); assay type: functional, cell-based
[17] = Single fluorophore orthopox expression reporter, late gene expression Measured in Cell-Based and Microorganism Combination System Using Plate Reader - 2142-08_Inhibitor_Dose_DryPowder_Activity.; assay type: functional
[18] = Orthopox viral replication plaque formation Measured in Cell-Based and Microorganism Combination System Using Imaging - 2142-05_Inhibitor_Dose_DryPowder_Activity.; assay type: functional
[19] = target: RNA-editing ligase 1, mitochondrial (Trypanosoma brucei brucei, UniProt P86926); experiment: TbREL1 ligase inhibitors, dose response, biochemical, fluorescence, Trypanosoma brucei (AID 1117295); assay type: functional
Sequence of RNA-editing ligase 1, mitochondrial (P86926 whole entry): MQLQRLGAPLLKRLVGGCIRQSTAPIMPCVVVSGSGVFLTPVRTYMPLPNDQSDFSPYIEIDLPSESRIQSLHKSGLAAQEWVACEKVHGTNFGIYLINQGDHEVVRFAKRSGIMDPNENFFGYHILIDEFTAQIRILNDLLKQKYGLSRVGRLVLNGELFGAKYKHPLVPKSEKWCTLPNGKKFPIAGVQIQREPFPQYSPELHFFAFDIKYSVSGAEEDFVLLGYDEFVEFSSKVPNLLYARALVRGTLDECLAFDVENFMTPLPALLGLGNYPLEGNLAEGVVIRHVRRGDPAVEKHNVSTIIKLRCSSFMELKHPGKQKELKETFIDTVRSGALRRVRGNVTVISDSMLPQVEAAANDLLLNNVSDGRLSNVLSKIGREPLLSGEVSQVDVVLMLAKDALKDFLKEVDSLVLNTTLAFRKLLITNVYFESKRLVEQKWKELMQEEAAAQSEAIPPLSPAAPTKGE

For `Cc1c(Br)c(C(=O)N2CCc3ccccc32)nn1C`, the EC50 [1] was 11.7 µM (active), the EC50 [2] was > 167 µM (inactive) and the EC50 [3] was 99.2 µM (active). The EC50 [4] was 6.16 µM (active).

For `CNc1ccc(C=C2C=Cc3ccccc32)cc1`, the IC50 [5] was 20.5 µM (active), the EC50 [6] was > 67.6 µM (inactive) and the EC50 [7] was > 67.6 µM (inactive).

In the case of `COC(=O)c1ccc(N2C(c3cc(OC)cc(OC)c3)=Cc3ccc(-c4ccc(C(N)=O)cc4)cc3C2CC(=O)C2CC2)cc1` (centres undefined), the EC50 [8] is reported as > 7.72 µM (active).

In the case of `c1ccc(Sc2nnc(-c3ccccc3)o2)cc1`, the AC50 [9] is reported as > 52 µM (inactive), the IC90 [10] is reported as 1 µM (active) and the AC50 [11] is reported as 42.9 µM (active). For the same compound, the IC90 [12] was 1 µM (active).

For `O=S(=O)(Nc1cc(C(F)(F)F)ccc1N1CCCCC1)c1ccc(-c2ccccc2)cc1`, the AC50 [13] was 0.852 µM (active).

With `O=C(Nc1ccccc1F)N1CCCCN2[C@H](C1)[C@H](c1ccc(/C=C/c3ccccc3)cc1)[C@@H]2CO` the AC50 [14] was 3.61 µM (active).

For `Cc1ccc(-c2ccc(CN(C)C[C@@H]3Oc4cc(C#C[C@@H](C)O)ccc4S(=O)(=O)N([C@@H](C)CO)C[C@@H]3C)cc2)cc1`, the AC50 [15] was 1.95 µM (active), the AC50 [16] was > 52 µM (inactive) and the AC50 [17] was 1.13 µM (active). For the same compound, the AC50 [18] was 1.76 µM (active).

In the case of `COC(=O)C1=C(C)N(Cc2ccc(C(F)(F)F)cc2)C(NCc2ccc(OC)cc2)=NC1c1ccccc1C(F)(F)F` (centres undefined), the IC50 [19] is reported as > 96.6 µM (inactive).
